The values that follow come from patent US6242433A, “Geranylgeranyl-derivatives, process for the preparation thereof and related pharmaceutical compositions” (Laboratori Baldacci SpA, priority 1995, dated 2001).

Test [1] deals with MIA PaCa-2 cell line. The experiment in a line: citotoxicity on human pancreas cancer MIA PaCa-2 cell line. Format: cell-based. From the text:
The relevance of such an effect on cell proliferation has been then evaluated by studying the citotoxicity of the above-mentioned compounds on the of human pancreas cancer MIA PaCa-2 cell line following the method described by R. Danesi et. al., Mol. Pharmacol., 47, 1106, 1995.
(§1) The citotoxicity of the geranylgeranyl-derivatives BAL9504 and BAL9503 has also been evaluated on the normal diploid fibroblast cells MRC-5 from human lung following the method described by R. Danesi et. al., Mol. Pharmacol., 47, 1106, 1995. Table 2 reports the concentration of the compounds under study that produces 50% growth inhibition (IC50) in MRC-5 and MIA PaCa-2 cell lines together with the sensibility index, that is the ratio between the IC50 in MRC-5 and MIA PaCa-2 cells.

Another test concerns p21rap1. The test is described as follows: inhibition of p21rap1 geranylgeranylation in a malignant tumoral human cell line (electrophoresis, PVDF membrane, specific polyclonal antibody). Type of test: cell-based. To be noted: 75 μM; 24 hours. How it is done:
The ability of the compounds according to the present invention of inhibiting the protein geranylgeranylation has been evaluated by means of an in vitro test on a malignant tumoral human cell line which has been treated with the following geranylgeranyl-derivatives:
The cells have been treated with increasing amounts of the geranylgeranyl derivatives BAL9504, BAL9505, BAL9603, BAL9605, BAL9608, BAL9609, BAL9610, BAL9611, BAL9613, BAL9503, BAL9614, (1-75 μM) and, after 24 hours, they have been collected and solubilized in a lysis solution containing non-ionic detergents. The soluble fraction has been collected by centrifugation and proteins separated by means of acrylamide gel electrophoresis and subsequently transferred onto a polyvinylidene fluoride (PVDF) membrane.
The presence of the geranylgeranylated protein p21rap1 has been then evidenced by means of a specific polyclonal antibody followed by chemiluminescent detection by means of a secondary antibody linked to alkaline phosphatase as previously described (M. A. Mansfield, FASEB J., S, A1428, 1994).

Test [2] relates to normal diploid fibroblast cells MRC-5. The test is described as follows: citotoxicity on normal diploid fibroblast cells MRC-5 from human lung. To be noted: Table 2; for pIC50: Homo sapiens, MRC5, MRC-5, read-out: IC50 (50% growth inhibition); for Sensibility Index (ratio between the IC50 in MRC-5 and MIA PaCa-2 cells): IC50 MRC-5 / IC50 MIA PaCa-2. Type of test: cell-based.
From the text: as §1

Test [3] deals with MIA PaCa-2 cell line. The experiment in a line: apoptosis in MIA PaCa-2 cells (ELISA of fragmented DNA). Format: cell-based, human. To be noted: 1-75 μM; vs non-treated cells. The source says:
Apoptosis consists in enzymatic digestion of nuclear DNA by endogenous nucleases within the cell and it occurs when cell replication is impaired by agents that block cell cycle progression towards mitosis.
For orientation: In an ELISA, binding on a coated surface is turned into a signal by an enzyme label.

The mark [4] stands for this setting: Table 1, read-out: IC50 (the concentration that produces 50% reduction in cell growth).
The mark [5] stands for this setting: Table 2, read-out: IC50 (50% growth inhibition).

The structures appear in SMILES notation. pIC50: −log10 of the molar value. Counter-ions that a name gives are not always drawn. Like-named read-outs stand apart in the source and are kept apart here.

Regarding `CC(C)=CCC/C(C)=C/CC/C(C)=C/CC/C(C)=C/COC(=O)NS(N)(=O)=O` [BAL9503, (E,E,E)-O-(3,7,11,15-tetramethyl-2,6,10,14-hexadecatetraenyl)-N-(aminosulfonyl)urethane], the pIC50 is 4.98 with MIA PaCa-2 cell line [1] (setting [4]), 4.98 with MIA PaCa-2 cell line [1] (setting [5]) and 3.59 in test [2]. Moreover, the “amount of the non-isoprenylated protein relative to the isoprenylated one (p21rap1)” value in the test on p21rap1 was “equal to that of the isoprenylated one”. In addition, the “Sensibility Index (ratio between the IC50 in MRC-5 and MIA PaCa-2 cells)” value in test [2] stood at 24.4. The “induction of death for apoptosis” value in the test with MIA PaCa-2 cell line [3] is “induce death for apoptosis”.
For `CC(C)=CCC/C(C)=C/CC/C(C)=C/CC/C(C)=C/CONC(=O)CP(=O)(O)O` [BAL9504, dipotassium salt of (E,E,E)-{2-oxo-2-[[(3,7,11,15-tetramethyl-2,6,10,14-hexadecatetraenyl)oxy]amino]ethyl}phosphonic acid], the results for the pIC50 (in the test on MIA PaCa-2 cell line [1] (setting [4]); with MIA PaCa-2 cell line [1] (setting [5]); in test [2]) were 5.68, 5.68 and 4.26, respectively. Also, in the test with p21rap1, the “amount of the non-isoprenylated protein relative to the isoprenylated one (p21rap1)” value is “equal to that of the isoprenylated one”. Further, the “Sensibility Index (ratio between the IC50 in MRC-5 and MIA PaCa-2 cells)” value in test [2] turned out to be 26. In addition, the “induction of death for apoptosis” value in the test with MIA PaCa-2 cell line [3] was “induce death for apoptosis”.
With `CCOP(=O)(O)CC(=O)NOC/C=C(\C)CC/C=C(\C)CC/C=C(\C)CCC=C(C)C` [BAL9505, monosodium salt of the monoethyl-ester of (E,E,E)-{2-oxo-2[[(3,7,11,15-tetramethyl-2,6,10,14-hexadecatetraenyl)oxy]amino]ethyl}phosphonic acid], the pIC50 in the test on MIA PaCa-2 cell line [1] (setting [4]) was below 4.52. For the same compound, the “amount of the non-isoprenylated protein relative to the isoprenylated one (p21rap1)” value in the test on p21rap1 is “equal to that of the isoprenylated one”.
In the case of `CC(C)=CCC/C(C)=C/CC/C(C)=C/CC/C(C)=C/CONC(=O)CCP(=O)(O)O` [BAL9603, dipotassium salt of (E,E,E)-{3-oxo-3-[[(3,7,11,15-tetramethyl-2,6,10,14-hexadecatetraenyl)oxy]amino]propyl}phosphonic acid], the pIC50 in the test with MIA PaCa-2 cell line [1] (setting [4]) is below 4.52.
On to `CC(C)=CCC/C(C)=C/CC/C(C)=C/CC/C(C)=C/CNC(=O)CP(=O)(O)O` [BAL9605, dipotassium salt of (E,E,E)-[2-oxo-2-[(3,7,11,15-tetramethyl-2,6,10,14-hexadecatetraenyl)amino]ethyl]phosphonic acid], for which the pIC50 in the test with MIA PaCa-2 cell line [1] (setting [4]) was 5.11. Moreover, the “induction of death for apoptosis” value in the test with MIA PaCa-2 cell line [3] was “induce death for apoptosis”.
Regarding `CC(C)=CCC/C(C)=C/CC/C(C)=C/CC/C(C)=C/CNC(=O)CCP(=O)(O)O` [BAL9608, dipotassium salt of (E,E,E)-[3-oxo-3-[(3,7,11,15-tetramethyl-2,6,10,14-hexadecatetraenyl)amino]propyl]phosphonic acid], the pIC50 in the test on MIA PaCa-2 cell line [1] (setting [4]) is 4.78.
Take `CC(C)=CCC/C(C)=C/CC/C(C)=C/CC/C(C)=C/CCP(=O)(O)CP(=O)(O)O` [BAL9609, tripotassium salt of (E,E,E)-[[(4,8,12,16-tetramethyl-3,7,11,15-heptadecatetraenyl)hydroxyphosphoryl]methyl]phosphonic acid]: in the test with MIA PaCa-2 cell line [1] (setting [4]), the pIC50 was 5.46. Further, the “induction of death for apoptosis” value in the test with MIA PaCa-2 cell line [3] is reported as “induce death for apoptosis”.
For the compound `CC(C)=CCC/C(C)=C/CC/C(C)=C/CC/C(C)=C/CCP(=O)(O)C(C)(C)P(=O)(O)O` [BAL9610, tripotassium salt of (E,E,E)-1-methyl-1[(4,8,12,16-tetramethyl-3,7,11,15-heptadecatetraenyl)hydroxyphosphoryl]ethylphosphonic acid], the pIC50 with MIA PaCa-2 cell line [1] (setting [4]) is below 4.52.
As for `CCC(CC)(P(=O)(O)O)P(=O)(O)CC/C=C(\C)CC/C=C(\C)CC/C=C(\C)CCC=C(C)C` [BAL9611, tripotassium salt of (E,E,E)-1-ethyl-1-[(4,8,12,16-tetramethyl-3,7,11,15-heptadecatetraenyl)hydroxyphosphoryl]propylphosphonic acid], the pIC50 in the test on MIA PaCa-2 cell line [1] (setting [4]) is 5.82. The “induction of death for apoptosis” value in the test on MIA PaCa-2 cell line [3] is given as “induce death for apoptosis”.
With `CC(C)=CCC/C(C)=C/CC/C(C)=C/CC/C(C)=C/CCP(=O)(O)O` [BAL9613, dipotassium salt of (E,E,E)-(4,8,12,16-tetramethyl-3,7,11,15-heptadecatetraenyl)phosphonic acid], the pIC50 in the test on MIA PaCa-2 cell line [1] (setting [4]) was below 4.52.
For the compound `CC(C)=CCC/C(C)=C/CC/C(C)=C/CC/C(C)=C/CONS(N)(=O)=O` [BAL9614, (E,E,E)-1-[(aminosulfonyl)aminoxy]-3,7,11,15-tetramethyl-2,6,10,14-hexadecatetraene], the pIC50 with MIA PaCa-2 cell line [1] (setting [4]) was 4.92.
